Experimental data from patent US8263649B2, “Benzofuran type derivatives, a composition comprising the same for treating or preventing cognitive dysfunction and the use thereof” (Medifron DBT Co., Ltd., priority 2006, dated 2012).

Legend:
[1] = target: T1, aggregated beta amyloid Ab(1-42) (Homo sapiens, UniProt P05067); assay: Inhibition test of beta amyloid aggregation lysis (Thioflavin T fluorescence); format: biochemical; details: FIG. 1
T1 construct: Synthetic beta amyloid, Ab(1-42) [Bachem Cat. No. H1368; H-Asp-Ala-Glu- Phe-Arg-His-Asp-Ser-Gly-Tyr; purchased Bachem H1368; host or cells: synthetic peptide
Procedure: Synthetic beta amyloid, Ab(1-42) [Bachem Cat. No. H1368; H-Asp-Ala-Glu- Phe-Arg-His-Asp-Ser-Gly-Tyr-Glu-Val-His-His-Gln-Lys-Leu-Val-Phe-Phe-Ala-Glu- Asp-Val-Gly-Ser-Asn-Lys-Gly-Ala-Ile-Ile-Gly-Leu-Met-Val-Gly-Gly-Val-Val-Ile- Ala-OH]) was dissolved in DMSO in order that it induces aggregation at the concentration of 25 microM for 1 week. The test group added with aggregated betaamyloid and test samples inhibiting the inhibition of aggregation and a control group added with only A were reacted together at room temperature for 1 hour on fluorescent black plate. ThT (Thioflavin T) was diluted with 50 mM glycine buffer solution to be […] and the diluted solutions were added to each well by 150 μl/well. The fluorescence intensity of each group was determined by microplate reader (SAFIRE, TECAN) at 450 nm excitation wavelength/480 nm emission wavelength after shaking together for 10 seconds.

[2] = test system: HT22 mouse neuronal cell line treated with aggregated beta amyloid 25-35; assay: Inhibition test of beta amyloid toxicity (MTT); format: cell-based; details: HT22 cells, 25 μm aggregated beta amyloid 25-35, 18 hours
Procedure: To determine the inhibitory activity of the compounds prepared in Examples on beta-amyloid toxicity, following test was performed according to the procedure disclosed in the literature (Gillardon, F. et al., Brain Research, 706(1), pp. 169-172, 1996).
HT22 mouse neuronal cell line was incubated in DMEM (Dulbecco's Modified Eagle's Medium, Gibco-BRL) medium supplemented with 10% FBS (Fetal Bovine Serum, Hyclone) and 1% penicillin/streptomycin (Sigma Co.). Prior to test, HT22 cell was incubated on 96 well plates with a density of 5×10^3 cell/well and further incubated in serum free DMEM medium for 1 hour before the treatment of test sample. Various concentration of compounds prepared in Examples used as a test sample was added thereto and incubated for 1 hour. Aggregated beta amyloid 25-35 (US peptide) was treated thereto to the concentration of 25 μm and incubated for 18 hours to induce cell necrosis. 5 mg/ml of MTT (3-(4,5-dimethyl-2-thiazolyl)-2,5-diphenyl-2H-tetrazolium bromide) solution was added each well with 15 μl/well and the well was incubated for 4 hours. Dissolving buffer solution (10% SDS, 50% dimethyl formamide, pH 4.7) was added to each well with 100 μl/well and reacted for overnight. 18 hours after the reaction, the absorbance of solution was determined by microplate reader (SAFIRE, TECAN) at 570 nm/630 nm wavelength (Gillardon, F. et al., Brain Research, 706(1) pp 169-172, 1996).

[3] = test system: ICR mouse administrated aggregated beta amyloid 1-42; assay: AD acute model experiment - Y maze test; format: in vivo
Procedure: For passive avoidance test, male ICR mouse weighing 25 g purchased from Samtaco Co. was bred with five mice per cage and the cage was kept with following condition maintaining the temperature of 22±2° C. and the relative humidity of […] under the regularly controlled light/dark condition with an interval of 12 hours.
Synthetic beta amyloid 1-42 (BACHEM) was dissolved in DMSO in order to be 250 μm solution and diluted with PBS to […] and aggregated at 37° C. for four days (Passive Avoidance test) or six days (Y maze test).
Aggregated beta amyloid 1-42 was administrated into the mice according to the procedure disclosed in the literature (Lausen & Belknap, J. Pharmacol. Methods, 16 pp 355-357, 1986). […]
The Y-maze test was performed two days after the administration of beta-amyloid. […] Thereafter, the entering order of the mice into the pathway was observed and the entering time was determined when four limbs of the mice were entered within the pathway. To determine the spatial memory, the percentage of spontaneous alteration behavior was calculated by applying the measured alteration frequency to following empirical formula 1 and the frequency of actual alteration behavior was assigned once at the time that the mice had entered the three pathways continuously. […]

T1 sequence (P05067 672-713): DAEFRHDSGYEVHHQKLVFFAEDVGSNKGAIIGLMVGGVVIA

SMILES: COCCCc1ccc2oc(-c3ccc(OC)c(OC)c3)cc2c1 [Compound 18b, 2-(3,4-dimethoxy-phenyl)-5-(3-methoxy-propyl)-benzofuran]
- solubilizing activity of beta-amyloid [1]: potent solubilizing activity
- inhibition effect on beta-amyloid toxicity [2]: potent inhibition effect
- recovering effect on memory learning capacity damaged by beta-amyloid (Y maze, spontaneous alteration) ([3]; mice, oral, 50, 100 and 200 mg/kg, FIG. 2, FIG. 3): potent recovering effect on memory learning capacity damaged by beta-amyloid in a dose dependent manner
- effect on the memory learning capacity (Y maze), best dose group ([3]; treatment group with more than 100 mg/kg, FIG. 3): most excellent effect
